Data: publication PMC4585840 (Scientific Reports, 2015)
Changes are numbered by the printed parent chain. pIC50, pKi: −log10 of the molar value.

Tests used:
[1] = target: T1, DEVDase activity in mouse liver protein extracts (Mus musculus, UniProt P70677); test: DEVDase activity in mouse liver protein extracts with added inhibitors; type: biochemical; settings: inhibitor added to extracts: 1 μM Q-VD-OPh, 0.1 μM bortezomib or 0.1 μM epoxomicin
T1 construct: Casp3 activity was assessed in liver protein extracts from mice; from tissue; host or cells: mouse liver (C57BL6/J), protein extracts
T1 sequence (P70677 29-175 limits assumed): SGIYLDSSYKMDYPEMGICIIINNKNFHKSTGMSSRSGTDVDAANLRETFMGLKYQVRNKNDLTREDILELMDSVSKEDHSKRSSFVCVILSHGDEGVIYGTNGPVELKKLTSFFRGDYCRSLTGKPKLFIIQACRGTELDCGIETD
T1 sequence (P70677 176-277 limits assumed): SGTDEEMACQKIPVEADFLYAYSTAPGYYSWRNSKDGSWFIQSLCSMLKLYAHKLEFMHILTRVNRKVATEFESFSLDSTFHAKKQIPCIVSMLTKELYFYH
Protocol: (§1) Activity assays for RCasp1 (Biovision, Millpitas, CA, USA) and RCasp3 (Enzo Lifesciences) used Z-Tyr-Val-Ala-Asp-7-Amino-4-trifluoromethylcoumarin (z-YVAD-AFC: Enzo LifeSciences,), and Ac-Asp-Glu-Val-Asp-7-Amino-4-trifluoromethylcouramin (Ac-DEVD-AFC: Enzo LifeSciences), respectively. To confirm that these substrates report caspase activity and not proteasomal caspase-like enzyme activity, 1 μM pan-caspase inhibitor, Q-VD-OPh (Sigma-Aldrich) or 0.1 μM proteasome inhibitor, bortezomib (Calbiochem, MA, USA) were tested on 20 nM RCasp3 or 40–60 μg of mouse liver protein extracts.
(§2) The caspase-like activity of the proteasome was measured using 10 μM Ac-Nle-Pro-Nle-Asp-AMC (Ac-nLPnLD-AMC, Enzo Lifesciences) as described for caspase activity assays except for the use of 10 mM DTT and a 7-amino-4-methylcoumarin (AMC, Sigma-Aldrich) standard curves. Mouse liver protein extracts were treated with 0.1 μM of epoxomicin (Enzo Lifesciences), bortezomib, 1 μM of Q-VD-OPh, or equal volumes of DMSO for 20 mins on ice before measuring proteasome or caspase activities.

[2] = target: T2, RCasp3 (Homo sapiens, UniProt P42574); test: in vitro fluorogenic Casp3 activity assay (Ac-DEVD-AFC); type: biochemical; settings: 20 nM RCasp3; 1 μM Q-VD-OPh or 0.1 μM bortezomib; Fig. 5c
T2 construct: Active Casp6 and Casp3 represented >99% of the purified enzyme; purchased Enzo Lifesciences
T2 sequence (P42574 29-175 limits assumed): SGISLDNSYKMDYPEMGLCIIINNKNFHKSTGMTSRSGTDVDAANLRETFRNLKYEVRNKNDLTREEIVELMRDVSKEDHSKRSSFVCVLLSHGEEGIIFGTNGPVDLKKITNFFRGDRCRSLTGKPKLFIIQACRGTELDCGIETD
T2 sequence (P42574 176-277 limits assumed): T1 sequence (P70677 176-277 limits assumed) with T3V, E5D, E6D, Q10H, S46A, L50Q, H53D, L77F, S79A

[3] = target: T3, caspase-like activity of the proteasome (Mus musculus, UniProt Q60692); test: proteasome assay (Ac-nLPnLD-AMC); type: biochemical; settings: mouse liver protein extracts, 0.1 μM bortezomib; supplementary Fig. S2
T3 construct: nLPnLDase activity in mouse liver protein extracts; from tissue; host or cells: mouse liver protein extracts
T3 sequence (Q60692 1-238): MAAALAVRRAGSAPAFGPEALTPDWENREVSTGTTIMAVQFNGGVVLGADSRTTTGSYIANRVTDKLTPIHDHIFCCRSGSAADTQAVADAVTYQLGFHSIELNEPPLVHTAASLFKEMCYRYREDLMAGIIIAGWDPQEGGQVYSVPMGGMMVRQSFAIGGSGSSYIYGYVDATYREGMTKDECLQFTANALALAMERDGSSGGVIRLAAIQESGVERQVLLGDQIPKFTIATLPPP
Protocol: as §2, with “activities. […]” for “activities.”
equated at 100% activity of the enzyme. Activity assays for recombinant Casp3 was done similarly to recombinant Casp6, except the substrate used was Ac-Asp-Glu-Val-Asp-7-Amino-4-trifluoromethylcouramin (Ac-DEVD-AFC: Enzo Life Sciences, NY, USA).
Proteasome assay: The caspase-like activity of the proteasome was measured using the substrate Ac-Nle-Pro-Nle-Asp-AMC (Enzo LifeSciences, NY, USA) at a final concentration of 10 µM in Stennicke’s buffer in the presence of 10 mM DTT. […]
Statistical Analysis: For Caspase-3 activity assays, data represent the mean ± SEM of 3 livers from 3 animals and was analyzed using a one-way ANOVA with Dunnett’s post hoc test (*** p < 0.001 in DMSO, and ### p < 0.001 in bortezomib) comparing all samples to LPS/GALN-treated mice in the absence of methylene blue, while proteasome assays were analyzed using […]

[4] = target: T4, Casp6 (Homo sapiens, UniProt P55212); test: Casp6 activity in serum-deprived human primary neuron cultures; type: cell-based; set-up: endogenous in cells; host or cells: human primary neurons from fetal brain cortex; settings: serum-deprived neurons, 2 hrs, 100 μM methylene blue, 50 μM azure A, 10 μM azure B; for Tub∆Casp6/Tub levels: vs PBS-treated serum-deprived neurons
T4 sequence (P55212 24-179 limits assumed): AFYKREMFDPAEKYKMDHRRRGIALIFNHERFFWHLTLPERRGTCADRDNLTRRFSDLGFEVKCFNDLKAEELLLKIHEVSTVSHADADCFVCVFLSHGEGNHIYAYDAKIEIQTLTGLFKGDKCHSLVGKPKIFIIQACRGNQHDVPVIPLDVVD
T4 sequence (P55212 194-293 limits assumed): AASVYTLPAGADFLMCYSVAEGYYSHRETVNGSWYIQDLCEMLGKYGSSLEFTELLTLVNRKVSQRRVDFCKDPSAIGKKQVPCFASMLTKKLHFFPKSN

[5] = target: T5, RCasp6 (Homo sapiens, UniProt P55212); test: inhibitor kinetic studies (Michaelis-Menten / Lineweaver-Burk) on RCasp6; type: biochemical; settings: for mode of inhibition: Lineweaver Burk plot, Km increasing, Vmax the same; for pKi: competitive inhibition model, nonlinear regression, Ac-VEID-AFC substrate, 10 nM RCasp6
T5 construct: The zymogen is cleaved at three distinct sites to remove the prodomain and linker regions in order to obtain an active enzyme; His tag (C); made in house; host or cells: E. coli BL21 (DE3)pLysS
T5 sequence (P55212 24-179 limits assumed): T4 sequence (P55212 24-179 limits assumed)
T5 sequence (P55212 194-293 limits assumed): T4 sequence (P55212 194-293 limits assumed)

[6] = system: human primary neurons; test: cell viability (microscopy) in human primary neurons; type: cell-based; settings: phase contrast microscopy, 2 hours
Protocol: (§3) HCT116 cells, plated at a density of 1 × 10^5 cells/well and human neurons, plated at a density of 6 × 10^6 cells/well on poly-L-lysine were treated with PBS or phenothiazines for 2 hours. The media was replaced before acquiring images with the Nikon Eclipse Ti microscope and the NIS-Elements (Version 3.10) software. MTT assays: Cells were plated in 96-well plates at 1 × 10^4 or 1 × 10^5 cells per well for 24 hours before treatments with phenothiazines or PBS. After 2 hours, fresh media containing […] MTT (3-(4,5-dimethylthiazol-2-yl)-2,5-diphenyltetrazolium bromide) (Sigma-Aldrich) was added and the cells were incubated for 4 hours at 37 °C in 5% CO2. The media was removed, formazan crystals were dissolved in DMSO, and the absorbance was measured at 560 nm and 670 nm using the BioTek Synergy H4 plate reader.

[7] = system: HCT116 cells; test: cell viability (microscopy and MTT) in HCT116 cells; type: cell-based, human; settings: 2 hours; for concentration at which cells retained morphology and confluence comparable to PBS-treated controls: HCT116, phase contrast microscopy
Protocol: as §3

[8] = target: T6, catalytic Cys163 of Casp6 (Homo sapiens, UniProt P55212); test: LC/MS/MS analysis of Casp6 Cys163 oxidation; settings: RCasp6 treated with 2 mM compound, 45 min, 37 °C
T6 construct: The zymogen is cleaved at three distinct sites to remove the prodomain and linker regions in order to obtain an active enzyme; His tag (C); made in house; host or cells: E. coli BL21 (DE3)pLysS
T6 sequence (P55212 24-179 limits assumed): T4 sequence (P55212 24-179 limits assumed)
T6 sequence (P55212 194-293 limits assumed): T4 sequence (P55212 194-293 limits assumed)

[9] = target: T5, RCasp6; test: in vitro fluorogenic Casp6 activity assay (Ac-VEID-AFC); type: biochemical; settings: 10 μM DTT; Fig. 1c
[10] = target: T5, RCasp6; test: in vitro tubulin cleavage assay with RCasp6; type: biochemical; settings: 20 nM RCasp6, 10 μM DTT, 10 hours, western blot densitometry; read-out: IC50, cleavage of tubulin by RCasp6 (Tub∆Casp6 relative to total tubulin)
Protocol: Phenothiazines were mixed with 20 nM RCasp6 or RCasp3, 10 μM DTT, and 7.5 nM BSA in SB and 36 μg HCT116 protein extracts added before incubation at 37 °C for 10 hours, western blotting, and densitometry for tubulin-cleaved by Casp6 (Tub∆Casp6) and total tubulin as described in the western blot section. The IC50 was determined by a non-linear regression fit for log inhibitor vs caspase activity with a Hill slope of −1 using GraphPad Prism 5.0.
(§4) The 10630 (1:10,000) and GN60622 (1:10,000) neoepitope antibodies against the p20 subunit of active Casp6[16] and Tub∆Casp6[23], respectively, were generated in our laboratory. The β-actin clone AC-15 (1:5000, Sigma-Aldrich), Casp6 p10 clone B93-4 (1:250, BD Canada, Mississauga, ON, CA), Casp3, and full-length α-tubulin (1:1000, Cell Signaling Technology Inc., Danvers, MA, USA) antibodies were diluted in 5% non-fat dry milk in Tris-buffered saline containing 0.1% Tween-20 (Sigma-Aldrich). […] Secondary anti-mouse conjugated to alkaline phosphatase (Jackson Immunoresearch Laboratories Inc., West Grove, PA) was developed with nitro-blue tetrazolium (ThermoSci) and 5-bromo-4-chloro-3′-indolyphosphate (ThermoSci).

[11] = target: T4, Casp6; test: Casp6 activity in Casp6p20p10-transfected HCT116 cells; type: cell-based; set-up: for active Casp6p20 subunit (p20), full length Casp6 lacking its pro-domain; Casp6p20p10 (p20p10); expressed in transfected cells; host or cells: HCT116 human colon carcinoma cells; settings: transfected HCT116, 2 hrs; 100 μM and 1 mM methylene blue, 50 μM azure A, 10 μM and 100 μM azure B
Protocol: as §1
Human colon carcinoma (HCT116) cells, cultured as recommended (ATCC: Manassas, VA, USA), were transfected with 1 μg pCep4βCasp6p20p10 and 8 μg polyethyleneimine (Polysciences Inc., Warrington, PA, USA), and grown 24 hrs before treatment with PBS and phenothiazines for 2 hours. Human primary neurons were cultured from fetal brain cortical areas obtained under ethical guidelines and approved by the McGill University’s institutional review board as previously described. Human primary neurons plated in poly-L-lysine -coated 6-well plates at a density of 3 × 10^6 cells/mL were serum-deprived for 2 hours in the presence of phenothiazines or an equivalent volume of PBS. Proteins were harvested in cell lysis buffer (CLB; 50mM HEPES, 0.1% CHAPS, 0.1mM EDTA).
as §4

| Structure (SMILES) | DEVDase activity in LPS/GALN-treated mouse liver protein extracts [1] | RCasp3 activity in vitro [2] | VEIDase activity [4] | Tub∆Casp6/Tub levels [4] | mode of inhibition [5] | pKi [5] | concentration above which cell body size and axonal fragmentation increased [6] | concentration at which cells retained morphology and confluence comparable to PBS-treated controls [7] [μM] | inhibition of Casp6 activity [9] | pIC50 [10] | Casp6 activity on the Ac-VEID-AFC peptide substrate [11] | other results |
| --- | --- | --- | --- | --- | --- | --- | --- | --- | --- | --- | --- | --- |
| CC[C@H](C)[C@H](NC(=O)[C@H]([C@@H](C)CC)N(C)C(C)=O)C(=O)N[C@H](C(=O)N[C@@H](CC(C)C)C(=O)[C@@]1(C)CO1)[C@@H](C)O [epoxomicin] | nor was Casp3 DEVDase activity affected |  |  |  |  |  |  |  |  |  |  |  |
| CC(C)C[C@H](NC(=O)[C@H](Cc1ccccc1)NC(=O)c1cnccn1)B(O)O [bortezomib] |  | did not inhibit |  |  |  |  |  |  |  |  |  | nLPnLDase proteasomal activity [3]: significantly inhibited |
| CNc1ccc2nc3ccc(N(C)C)cc3[s+]c2c1 [azure B, dimethyl-[7-(methylamino)phenothiazin-3-ylidene]azanium;chloride] |  |  | significantly inhibited | significantly decreased | competitive | 5.10 | > 10 µM | 100 | inhibited Casp6 activity in a dose dependent manner | 4.46 | significantly inhibited | concentration up to which well tolerated ([7]; HCT116, MTT assay): up to 100 μM; sequenced peptides containing oxidized Cys163 [8]: 7.7%; concentration at which reduction in Casp6 activity was observed [9]: 100 pM |
| CC(C)[C@H](NC(=O)c1ccc2ccccc2n1)C(=O)N[C@@H](CC(=O)O)C(=O)COc1c(F)cccc1F [Q-VD-OPh] | abrogated | abrogated |  |  |  |  |  |  |  |  |  |  |
| CN(C)c1ccc2nc3ccc(N)cc3[s+]c2c1 [azure A, (7-aminophenothiazin-3-ylidene)-dimethylazanium;chloride] |  |  | significantly inhibited | significantly decreased | competitive | 6.38 | above 50 μM | 50 | inhibited Casp6 activity in a dose dependent manner | 6.30 | trend towards inhibition but it did not reach statistical significance | concentration above which toxicity was shown ([7]; HCT116, MTT assay): above 50 μM; concentration necessary for a significant inhibition of Casp6 activity [9]: 10 nM |
